# Test results from patent publication US9150546B2, “Triazine derivative and pharmaceutical composition comprising the same” (SHIONOGI & CO., LTD., priority 2009, dated 2015).
# Molecular target: human P2X3 receptor (Homo sapiens (Human), UniProt P56373)
# Test: P2X3 receptor inhibition, ATP-evoked Fluo-3 fluorescence (FDSS 3000)
# Format: cell-based
# Conditions: C6BU-1 cell transfected with human P2X3 receptor gene
# Sequence of human P2X3 receptor (P56373 whole entry): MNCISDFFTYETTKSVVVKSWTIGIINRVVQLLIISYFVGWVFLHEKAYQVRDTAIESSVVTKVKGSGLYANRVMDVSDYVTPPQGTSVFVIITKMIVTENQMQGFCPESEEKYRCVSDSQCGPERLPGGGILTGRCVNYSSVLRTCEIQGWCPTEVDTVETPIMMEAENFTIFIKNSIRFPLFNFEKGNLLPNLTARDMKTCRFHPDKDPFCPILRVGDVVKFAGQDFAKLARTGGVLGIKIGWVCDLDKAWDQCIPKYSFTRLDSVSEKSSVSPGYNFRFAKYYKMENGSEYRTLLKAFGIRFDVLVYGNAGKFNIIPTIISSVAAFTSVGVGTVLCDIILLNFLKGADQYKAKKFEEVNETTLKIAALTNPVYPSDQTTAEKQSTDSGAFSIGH
row,SMILES,IC50
1,CC(C)n1c(=O)nc(Nc2ccc(C(=O)NCC3CC3)cc2)n(Cc2ccc(Cl)cc2)c1=O [I-258],683 nM
2,CC(C)Oc1ccc(/N=c2\[nH]c(=O)n(CC(C)(C)C(=O)O)c(=O)n2CC2CCCC2)cc1Cl [I-554],139 nM
3,COC(=O)C(C)(C)Cn1c(=O)[nH]/c(=N\c2cccc(OC(F)F)c2)n(Cc2ccc(Cl)cc2)c1=O [I-443],207 nM
4,CC(C)Oc1ccc(Nc2nc(=O)n(CCC(=O)O)c(=O)n2CC2CCCCC2)cc1Cl [I-382],96 nM
5,CC(C)Oc1ccc(/N=c2\[nH]c(=O)n([C@@H](C)CC(=O)O)c(=O)n2Cc2ccc(Cl)cc2)cc1Cl [I-526],24 nM
6,COC(=O)C(C)(C)Cn1c(=O)[nH]/c(=N\c2ccc(OC)c(C)c2)n(Cc2ccc(Cl)cc2)c1=O [I-442],117 nM
7,CC(C)Oc1ccc(Nc2nc(=O)n(CCN3CCCCC3)c(=O)n2Cc2ccc(Cl)cc2)cc1F [I-282],27 nM
8,CCCSc1ccc(Nc2nc(=O)n(CCO)c(=O)n2Cc2ccc(Cl)cc2)cc1 [I-379],330 nM
9,CC(C)(Cn1c(=O)[nH]/c(=N\c2ccc(O)c(Cl)c2)n(Cc2ccc(Cl)cc2)c1=O)C(=O)O [I-429],779 nM
10,COC(=O)C(C)(C)Cn1c(=O)[nH]/c(=N\c2ccc(OC(C)C)nc2)n(Cc2ccc(Cl)cc2)c1=O [I-473],583 nM
11,CC(C)Oc1ccc(/N=c2\[nH]c(=O)n(CC(=O)NC(CO)CO)c(=O)n2Cc2ccc(Cl)cc2)cc1F [I-398],7 nM
12,CC(C)Oc1ccc(Nc2nc(=O)n(CC(CO)CO)c(=O)n2Cc2ccc(Cl)cc2)cc1F [I-276],12 nM
13,CC(C)Oc1ccc(Nc2nc(=O)n(C(C)C)c(=O)n2Cc2ccc(F)cc2)cc1Cl [I-203],110 nM
14,CC(C)Oc1ccc(Nc2nc(=O)n(CCC(=O)NCCO)c(=O)n2Cc2ccc(Cl)cc2)cc1F [I-352],36 nM
15,COC(=O)C(C)(C)Cn1c(=O)[nH]/c(=N\c2ccc(CN(C)C)c(Cl)c2)n(Cc2ccc(Cl)cc2)c1=O [I-490],46 nM
16,CCOC(=O)CCCn1c(=O)[nH]/c(=N\c2ccc3oc(C)cc3c2)n(Cc2ccc(Cl)cc2)c1=O [I-504],15 nM
17,CC(C)Oc1ccc(Nc2nc(=O)n(C(C)C)c(=O)n2Cc2ccc(F)cc2)cc1C#N [I-227],970 nM
18,CC(C)(Cn1c(=O)[nH]/c(=N\c2ccc(OC(F)F)cc2)n(Cc2ccc(Cl)cc2)c1=O)C(=O)O [I-543],172 nM
19,O=c1nc(Nc2ccc(OC(F)F)cc2)n(Cc2ccc(Cl)cc2)c(=O)n1CCCO [I-360],148 nM
20,CC(C)Oc1ccc(Nc2nc(=O)n(CC(C)(C)CO)c(=O)n2Cc2ccc(Cl)cc2)cc1F [I-332],8 nM
21,COC(=O)C[C@@H](C)n1c(=O)[nH]/c(=N\c2ccc(OC(C)C)c(Cl)c2)n(Cc2ccc(Cl)cc2)c1=O [I-556],5 nM
22,COC(=O)c1ccc(Cn2c(=O)[nH]/c(=N\c3ccc(OC(C)C)c(F)c3)n(Cc3ccc(Cl)cc3)c2=O)cc1 [I-444],17 nM
23,O=c1nc(Nc2ccc(OC3CCOCC3)cc2)n(Cc2ccc(Cl)cc2)c(=O)n1CCO [I-324],309 nM
24,C=CCn1c(=O)nc(Nc2ccc(OC(C)C)c(F)c2)n(Cc2ccc(Cl)cc2)c1=O [I-346],16 nM

row,SMILES,IC50
1,CC(C)n1c(=O)nc(Nc2ccc(OC3CCOCC3)c(Cl)c2)n(Cc2ccc(Cl)cc2)c1=O [I-239],116 nM
2,CC(C)Oc1ccc(Nc2nc(=O)n(CCC(=O)N(C)C)c(=O)n2Cc2ccc(Cl)cc2)cc1F [I-297],45 nM
3,CC(C)c1cccc(Nc2nc(=O)n(CCO)c(=O)n2Cc2ccc(Cl)cc2)c1 [I-378],347 nM
4,CCOc1ccc(/N=c2\[nH]c(=O)n(C[C@@H](C)C(=O)O)c(=O)n2Cc2ccc(Cl)cc2)cc1Cl [I-487],27 nM
5,COC(=O)Cn1c(=O)[nH]/c(=N\c2ccc(OC(C)C)c(F)c2)n(Cc2ccc(C)cc2)c1=O [I-410],44 nM
6,Cc1cc(/N=c2\[nH]c(=O)n(CC(C)(C)C(=O)O)c(=O)n2Cc2ccc(Cl)cc2)ccc1OC(C)C [I-432],26 nM
7,CC(Nc1nc(=O)n(C(C)C)c(=O)n1Cc1ccc(F)cc1)c1ccc(Cl)cc1 (stereo not shown) [I-223],909 nM
8,CCOc1ccc(Nc2nc(=O)n(CC(CO)CO)c(=O)n2Cc2ccc(Cl)cc2)cc1 [I-371],63 nM
9,CC(C)Oc1ccc(Nc2nc(=O)n(C(CO)CO)c(=O)n2Cc2ccc(Cl)cc2)cc1F [I-286],277 nM
10,Cc1ccc(Cn2c(=O)n(CC(C)(C)C(=O)O)c(=O)[nH]/c2=N\c2ccc(OC(C)C)c(F)c2)cc1F [I-413],99 nM
11,Cc1cc(/N=c2\[nH]c(=O)n(C[C@@H](C)C(=O)O)c(=O)n2Cc2ccc(Cl)cc2)ccc1OC(C)C [I-486],42 nM
12,CC(C)(Cn1c(=O)[nH]/c(=N\c2ccc(Cl)c(Cl)c2)n(Cc2ccc(Cl)cc2)c1=O)C(=O)O [I-477],56 nM
13,Cc1ccc(Cn2c(=O)n(CC(=O)NCC(=O)O)c(=O)[nH]/c2=N\c2ccc(OC(C)C)c(F)c2)cc1 [I-416],35 nM
14,CC(C)n1c(=O)nc(Nc2ccc3[nH]c(=O)oc3c2)n(Cc2ccc(Cl)cc2)c1=O [I-246],996 nM
15,CSc1cccc(/N=c2\[nH]c(=O)n(CC(C)(C)C(=O)O)c(=O)n2Cc2ccc(Cl)cc2)c1 [I-510],98 nM
16,O=c1nc(Nc2ccc(C(F)(F)F)c(F)c2)n(Cc2ccc(Cl)cc2)c(=O)n1CCO [I-315],183 nM
17,CC(C)n1c(=O)nc(Nc2ccc(Oc3ccccc3)cc2)n(Cc2ccc(F)cc2)c1=O [I-128],840 nM
18,CCOc1ccc(/N=c2\[nH]c(=O)n(C[C@@H](C)C(=O)O)c(=O)n2Cc2ccc(Cl)cc2)cc1 [I-484],290 nM
19,CCn1ccc2cc(/N=c3\[nH]c(=O)n(CC(C)(C)C(=O)OC)c(=O)n3Cc3ccc(Cl)cc3)ccc21 [I-492],102 nM
20,CC(C)n1c(=O)nc(Nc2ccc(C(=O)NC3CC3)cc2)n(Cc2ccc(Cl)cc2)c1=O [I-257],682 nM
21,CC(C)Oc1ccc(Nc2nc(=O)n(CCO)c(=O)n2Cc2ccc(Cl)cc2)cc1Cl [I-351],15 nM
22,COC(=O)C[C@@H](C)n1c(=O)[nH]/c(=N\c2ccc(OC(C)C)c(F)c2)n(Cc2ccc(Cl)cc2)c1=O [I-560],7 nM
23,CCOC(=O)CCn1c(=O)nc(Nc2ccc(OC(C)C)c(Cl)c2)n(CC2CCCCC2)c1=O [I-380],34 nM
24,CC(C)Oc1ccc(/N=c2\[nH]c(=O)n(CC(=O)NCC(N)=O)c(=O)n2Cc2ccc(Cl)cc2)cc1Cl [I-438],5 nM

row,SMILES,IC50
1,COC(=O)c1cccc(Cn2c(=O)[nH]/c(=N\c3ccc(OC(C)C)c(F)c3)n(Cc3ccc(Cl)cc3)c2=O)c1 [I-450],36 nM
2,CC(C)Oc1ccc(/N=c2\[nH]c(=O)n(C[C@H](C)C(=O)O)c(=O)n2CC2CCCCC2)cc1Cl [I-552],23 nM
3,CC(C)Oc1ccc(Nc2nc(=O)n(C(C)C)c(=O)n2Cc2ccc(F)cc2)cc1C(F)(F)F [I-204],558 nM
4,CSc1ccc(/N=c2\[nH]c(=O)n(CC(C)(C)C(=O)O)c(=O)n2Cc2ccc(Cl)cc2)cc1 [I-544],601 nM
5,CC(C)Oc1ccc(Nc2nc(=O)n(CC(=O)NCCO)c(=O)n2Cc2ccc(Cl)cc2)cc1F [I-353],18 nM
6,CC(C)CNC(=O)c1ccc(Nc2nc(=O)n(C(C)C)c(=O)n2Cc2ccc(Cl)cc2)cc1 [I-256],867 nM
7,CSc1cccc(Nc2nc(=O)n(C(C)C)c(=O)n2Cc2ccc(C)cc2)c1 [I-118],231 nM
8,CCCn1ccc2cc(/N=c3\[nH]c(=O)n(CC(C)(C)C(=O)O)c(=O)n3Cc3ccc(Cl)cc3)ccc21 [I-509],652 nM
9,COC(=O)C(C)(C)Cn1c(=O)[nH]/c(=N\c2ccc(C(=O)C(C)(C)C)cc2)n(Cc2ccc(Cl)cc2)c1=O [I-402],443 nM
10,CC(C)n1c(=O)nc(Nc2cccc(OC(F)(F)F)c2)n(Cc2ccc(F)cc2)c1=O [I-181],985 nM
11,CCOC(=O)CCn1c(=O)nc(Nc2ccc(OC(C)C)c(F)c2)n(Cc2ccc(Cl)cc2)c1=O [I-356],12 nM
12,Cc1ccc(Cn2c(=O)n(CC(C)(C)C(=O)O)c(=O)[nH]/c2=N\c2ccc(OC(C)C)c(F)c2)cc1 [I-405],32 nM
13,CC(C)Cc1ccc(Nc2nc(=O)n(CC(CO)CO)c(=O)n2Cc2ccc(Cl)cc2)cc1 [I-366],46 nM
14,O=c1nc(Nc2ccc(OC3CCCC3)c(Cl)c2)n(Cc2ccc(Cl)cc2)c(=O)n1CCO [I-374],80 nM
15,CCOc1ccc(/N=c2\[nH]c(=O)n(C[C@@H](C)C(=O)OC)c(=O)n2Cc2ccc(Cl)cc2)cc1 [I-480],12 nM
16,Cc1ccc(Cn2c(Nc3ccc4[nH]ccc4c3)nc(=O)n(C(C)C)c2=O)cc1 [I-123],815 nM
17,CC(C)Oc1ccc(/N=c2\[nH]c(=O)n(CC(C)(C)C(=O)O)c(=O)n2Cc2ccc(Cl)cc2)cc1 [I-541],58 nM
18,CC(C)Oc1ccc(/N=c2\[nH]c(=O)n(Cc3ccccc3C(=O)O)c(=O)n2Cc2ccc(Cl)cc2)cc1F [I-459],39 nM
19,Cc1ccc(Cn2c(Nc3cccc(Cl)c3)nc(=O)n(C(C)C)c2=O)cc1 [I-117],387 nM
20,CC(C)Oc1ccc(Nc2nc(=O)n(C(C)C)c(=O)n2Cc2ccc(F)cc2)cc1 [I-133],339 nM
21,CC(C)n1c(=O)nc(Nc2ccc(C(=O)Nc3ccccc3)cc2)n(Cc2ccc(Cl)cc2)c1=O [I-266],861 nM
22,Cc1ccc(Cn2c(=O)n(CCC(=O)O)c(=O)[nH]/c2=N\c2ccc(OC(C)C)c(F)c2)cc1 [I-411],61 nM
